Patent US20230383264A1, “FULLY FUNCTIONAL CONTRACTILE GASTROINTESTINAL ORGANOID SYSTEM, GENERATED FROM HUMAN-INDUCED PLURIPOTENT STEM CELLS TO DEVELOP A HIGH THROUGHPUT SYSTEM FOR DETECTING EXISTING AND NEWLY-EMERGING PATHOGENS, DRUGS, TOXICITY AND THEREOF” (NeyroblastGX LLC,, priority 2022, published 2023)
“And” between values parts separate entries of the source, which are not always exact repeats. Identical values can stand only once. “Also recorded” adds a separate entry of the source.

Tests used:
Format in all cases: cell-based, human
[1] = system: GIO (gastrointestinal organoids from HiPSCs); test: 10-plex proinflammatory cytokine array of LPS-treated GIO media
Method: 10-plex proinflammatory cytokine (ProC) measurement of LPS and pathogen/non-pathogenic bacterial treated GIO media (supernatant) was assayed using the Luminex multiplexing cytokine suspension array technology (Immune Monitoring Core Facility, USC, CA). Measurements of IL-2, IL-6, IL-8, IL-10, IL-13, TNF-α, INF-γ, MIP-1α and MIP-1β in the supernatant were analyzed using a MilliPlex MAP human cytokine/chemokine magnetic bead panel (MilliporeSigma, St. Louis, MO). Plates were read on a Bio-Plex 200 System using Bio-Plex Manager software version 6.0 (BioRad, Hercules, CA). Five (5) parameter logistic regression algorithms were used to determine cytokine concentrations based on provided cytokine standards and averages from triplicate-wells. Each ProC standard was measured using six known concentrations (10.0 ng, 2.0 ng, 0.4 ng, 0.08 ng, 0.016 ng, 0.0032 ng), and most regression values reached >0.99. Limit of detection: The lower limit of quantitation (LLOQ) for each ProCs are IL-13 (0.257 pg/mL), IL-1β (0.485 pg/mL), IL-2 (0.157 pg/mL), IL-8 (0.299 pg/mL), TNF-α (0.382 pg/mL), IL-6 (0.179 pg/mL), INF-γ (0.562 pg/mL), IL-10 (1.510 pg/mL), MIP-1α (0.273 pg/mL), MIP-1β ([…]). We quantified the UT-GIO, LPS-treated Sus-GIO, and Cryo-GIO with or without pathogenic and non-pathogenic bacteria. After analyzing ProC in each treatment, we conducted statistical analyses to determine the significance of the ProC status of pathogenic versus non-pathogenic bacteria in LPS-treated (Sus-GIO) and untreated GIO (UT-GIO) using GraphPad Prism (San Diego, CA). We have performed two-way ANOVA with Tukey's multiple comparisons using GraphPad Prism. *p<0.05, **p<0.01, ***p<0.001, ****p<0.0001 denotes significance.

[2] = system: GIO (gastrointestinal organoids from HiPSCs); test: MTT cell viability assay of Fresh-GIO and Cryo-GIO; settings: LPS 96 h
Method: We determined GIO viability after the freeze-thaw cycle using a colorimetric assay to evaluate cell metabolic activity with an MTT [3-(4,5-dimethylthiazol-2-yl)-2,5-diphenyltetrazolium bromide] assay, following the manufacturer's instructions for the assay (MilliporeSigma). To perform the reported established MTT assay^40, we grew GIO in 24-well plates and then treated them with or without LPS for 96 h to observe viability and stability. We added lmg/mL of MTT reagent to each −well containing GIO, followed by the 2 h incubation at 37° C. Further, GIO was washed with sterile PBS, followed by the addition of dimethyl sulfoxide (DMSO) in each—well and mixed. After the 10 min incubation, DMSO was absorbed the MTT and run for a plate reader (SpectraMax iD3 Plate Reader, Molecular Devices, San Jose, CA) with the optical absorption density (OD) of 570 nm to determine the amount of MTT binding in the viable cell. This method determined our GIO's viability and stability after the freeze-thaw cycle with or without inflectional susceptible LPS treatment. We calculated the amount of MTT in each well using the following formula: […]

[3] = system: GIO (gastrointestinal organoids from HiPSCs); test: Immunocytochemistry of Zo1 (TJP1) and Ki67 in LPS-treated GIO
Text: Immunocytochemistry (ICC) and flow cytometry is a common cellular protein or antigen-detecting and visualization techniques that can recognize the target of interest or specific marker expression in cells via imaging and a series of flow histograms. The antibody is directly or indirectly linked to a reporter, such as a fluorophore or an enzyme. We performed ICC and flow cytometry as a previously established method developed by the PI.^35, 36 Briefly, for flow cytometry, cells were collected and dissociated with trypsin into a single cell and then blocked with 2% mouse serum and staining with conjugated anti-CDX2 antibody (BD Biosciences) as previously established method^11 and run to NovoCyte Flow Cytometer (Agilent Technologies, Santa Clara, CA). We have verified endodermal marker verification using CDX2 expression using flow cytometry. But for ICC, we have grown GIOs on coverslips coated or directly on the 24-well plates. Then cells were washed with PBS (phosphate-buffered saline) and fixed with 4% paraformaldehyde (PFA, Thermo Scientific). After additional washes in PBS, the cells were permeabilized in 0.1% Triton X-100 (Sigma-Aldrich), followed by blocking with 5% BSA (bovine serum albumin) in PBS containing 10% normal goat serum (NGS, Thermofisher Scientific). Next, the cells were incubated overnight with primary antibodies diluted in a blocking solution at […] with an appropriate dilution indicated by the manufacturer. The next day, the cells were washed three times with washing buffer (1×PBS containing 0.05% Tween 20 and 1% NGS). Then cells were incubated for 2 h at 25° C. with a fluorescent secondary antibody (Life Technologies). […] NGL lab-produced GIO followed a similar developmental pathway in the fetus or fetal mouse^37, including smooth muscle contractile ability determined by smoothA and β-actin,^14 GFAP, and MAP2.

[4] = system: microbiota-treated GIO bacterial community; test: Shotgun metagenomics of fecal microbiota-treated GIO; settings: LPS-treated GIO vs GIO without LPS, with fecal microbiota
Method: Our UT-GIO and Sus-GIO were treated with fecal microbiota to generate GIO with a complete gut-microbiome system observed in vivo.^38,39 In this context, we first prepared fecal microbiota, purchased from Discovery Life Sciences (DLS). DLS obtains fecal microbiota samples according to their protocol approved by their internal review board (IRB). Then, 100 mg of fecal microbiota was dissolved with sterile PBS and filtered by a 70 μm cell strainer to remove aggregates. Filtered fecal microbiota was further diluted 1:100 using an intestinal expansion medium without penicillin/streptomycin. […] Microbiota-treated GIO with or without LPS and pathogenic/nonpathogenic bacterial culture media sample was analyzed by University of California, San Diego (UCSD) Microbiome Core to obtain metagenomic profiles.
In total, pathogenic and non-pathogenic UT (untreated) and Sus (susceptible)-GIO samples were processed for total DNA extraction and metagenomic library preparation and sequencing. […] Sequencing data were processed first by performing adapter trimming and human-read filtering via pairwise alignments using minimap2. All reads were uploaded into qiita, and taxonomy was assigned using the Web of Life toolkit (WoLtka) implementation in Qiime2 via QIITA (read more here: https://github.com/qiyunzhu/woltka). […]

lipopolysaccharide [LPS]
IL-10, IL-1β and IFNγ secretion ([1]; LPS 100 μg/mL, 48 h only): upregulated only in 48 h time points; also recorded: upregulated when treated with only 100 μg/mL LPS for 48 h
IL-2, IL-6, IL-8, TNF-α, MIP-1α and MIP-1β secretion ([1]; LPS 10-100 μg/mL, 24 h and 48 h, dose and time-dependent): upregulated
IL-13 secretion ([1]; any time point or LPS concentration): unable to detect
Loss of cell viability (MTT) [2]: 15-20% and ~20%
Effect on Zo1 immunostaining at earlier time point ([3]; 24-48 h): could not see any effect on Zo1
Ki67 (intestinal crypt cell type) expression ([3]; LPS 100 μg/ml, 96 h): decreased
Effect on TJP1 (Zo1) expression ([3]; LPS 50-100 μg/ml, 96 h): affects GIO TJP1; also recorded: disrupts endothelial tight junction protein
Change of bacterial community (Bacteroidales bacterium M2) [4]: causes a bloom of an unknown Bacteroides sp; also recorded: caused a bloom of unknown Bacteroides sp
